Reference: publication PMC8343220, “The selectivity of α‐adrenoceptor agonists for the human α1A, α1B, and α1D‐adrenoceptors” (Pharmacology Research & Perspectives, 2021)

What was measured:
[1] = system: parental CHO cell line without any transfected receptors; test: Intracellular calcium mobilization, parent CHO cells without transfected receptors; format: cell-based, Chinese hamster
[2] = molecular target: T1, human α1D‐adrenoceptor (full length) (Homo sapiens, UniProt P25100); test: ERK1/2‐phosphorylation (Surefire Alphascreen), CHO‐α1D cells; format: cell-based
T1 construct: human α1D‐adrenoceptor (full length) were used; expressed in transfected cells; host or cells: CHO-K1
T1 sequence (P25100 1-572): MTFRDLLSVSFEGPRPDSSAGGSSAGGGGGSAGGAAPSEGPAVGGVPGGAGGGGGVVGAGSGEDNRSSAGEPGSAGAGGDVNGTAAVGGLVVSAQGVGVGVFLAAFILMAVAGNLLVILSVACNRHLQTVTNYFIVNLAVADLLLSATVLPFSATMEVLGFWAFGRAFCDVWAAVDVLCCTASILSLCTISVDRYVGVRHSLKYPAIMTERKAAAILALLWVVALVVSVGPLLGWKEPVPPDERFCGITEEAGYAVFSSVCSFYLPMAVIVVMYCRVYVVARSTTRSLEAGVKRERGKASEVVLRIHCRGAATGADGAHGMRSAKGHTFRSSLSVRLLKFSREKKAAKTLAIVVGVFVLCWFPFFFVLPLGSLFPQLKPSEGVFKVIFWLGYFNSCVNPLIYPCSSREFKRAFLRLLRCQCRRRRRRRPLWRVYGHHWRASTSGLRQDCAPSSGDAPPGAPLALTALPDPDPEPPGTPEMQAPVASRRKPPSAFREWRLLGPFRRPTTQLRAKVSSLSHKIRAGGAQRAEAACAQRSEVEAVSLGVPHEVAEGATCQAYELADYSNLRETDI

human α1B‐adrenoceptor [3] = molecular target: T2, human α1B‐adrenoceptor (Homo sapiens, UniProt P35368); test: Intracellular free calcium mobilization, CHO‐α1B cells; format: cell-based
T2 construct: expressed in transfected cells; host or cells: CHO-K1
T2 sequence (P35368 1-520): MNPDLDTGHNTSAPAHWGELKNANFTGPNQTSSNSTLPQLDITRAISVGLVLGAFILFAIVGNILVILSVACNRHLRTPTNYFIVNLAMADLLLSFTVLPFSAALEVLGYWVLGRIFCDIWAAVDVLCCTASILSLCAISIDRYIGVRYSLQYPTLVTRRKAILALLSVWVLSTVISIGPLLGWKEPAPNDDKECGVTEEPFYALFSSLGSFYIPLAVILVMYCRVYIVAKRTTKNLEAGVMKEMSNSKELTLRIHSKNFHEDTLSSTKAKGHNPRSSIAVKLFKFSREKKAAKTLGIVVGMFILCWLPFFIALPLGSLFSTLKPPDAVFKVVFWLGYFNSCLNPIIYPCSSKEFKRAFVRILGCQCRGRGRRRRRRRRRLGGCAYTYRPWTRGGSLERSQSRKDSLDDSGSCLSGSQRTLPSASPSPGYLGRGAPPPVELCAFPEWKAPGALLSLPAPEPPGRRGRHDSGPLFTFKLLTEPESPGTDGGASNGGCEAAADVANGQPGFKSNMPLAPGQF

[4] = system: parental CHO cell line without any transfected receptors; test: ERK1/2‐phosphorylation, parent CHO cells without transfected receptors; format: cell-based, Chinese hamster; conditions: CHO cells without transfected receptors, mean ± s.e.m.
[5] = system: parental CHO cell line without any transfected receptors; test: Forskolin‐stimulated cAMP accumulation, parent CHO cells without transfected receptors; format: cell-based, Chinese hamster; conditions: CHO cells without transfected receptors; in presence of forskolin
human α1A‐adrenoceptor [6] = molecular target: T3, human α1A‐adrenoceptor (Homo sapiens, UniProt P35348); test: ^3H‐prazosin whole‐cell radioligand binding, CHO‐α1A cells
T3 construct: expressed in transfected cells; host or cells: CHO-K1
T3 sequence (P35348 1-466): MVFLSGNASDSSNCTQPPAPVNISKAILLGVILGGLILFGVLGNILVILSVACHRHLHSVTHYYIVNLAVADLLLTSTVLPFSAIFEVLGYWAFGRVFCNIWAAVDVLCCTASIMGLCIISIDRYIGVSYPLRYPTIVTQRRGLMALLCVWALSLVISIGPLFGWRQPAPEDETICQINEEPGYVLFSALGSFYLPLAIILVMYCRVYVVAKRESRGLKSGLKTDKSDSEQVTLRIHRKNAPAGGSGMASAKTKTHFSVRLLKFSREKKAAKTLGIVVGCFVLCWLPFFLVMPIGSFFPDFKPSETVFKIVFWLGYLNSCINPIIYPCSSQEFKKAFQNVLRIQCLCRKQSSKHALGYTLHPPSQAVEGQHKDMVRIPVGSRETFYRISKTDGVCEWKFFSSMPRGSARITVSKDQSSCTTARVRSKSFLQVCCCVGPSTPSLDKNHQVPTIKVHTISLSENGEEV

human α1B‐adrenoceptor [7] = molecular target: T2, human α1B‐adrenoceptor; test: ^3H‐cAMP accumulation in the presence of 10 μM forskolin, CHO‐α1B cells; format: cell-based; conditions: CHO‐α1B cells
human α1B‐adrenoceptor [8] = molecular target: T2, human α1B‐adrenoceptor; test: ERK1/2‐phosphorylation (Surefire Alphascreen), CHO‐α1B cells; format: cell-based
human α1A‐adrenoceptor [9] = molecular target: T3, human α1A‐adrenoceptor; test: Intracellular free calcium mobilization, CHO‐α1A cells; format: cell-based
human α1B‐adrenoceptor [10] = molecular target: T2, human α1B‐adrenoceptor; test: ^3H‐cAMP accumulation, CHO‐α1B cells; format: cell-based; conditions: CHO‐α1B cells
human α1A‐adrenoceptor [11] = molecular target: T3, human α1A‐adrenoceptor; test: ^3H‐cAMP accumulation, CHO‐α1A cells; format: cell-based; conditions: CHO‐α1A cells; response at 10 μM ligand, no EC50 obtained
[12] = molecular target: T1, human α1D‐adrenoceptor (full length); test: ^3H‐prazosin whole‐cell radioligand binding, CHO‐α1D cells; conditions: for Kd: CHO‐α1D cells
human α1B‐adrenoceptor [13] = molecular target: T2, human α1B‐adrenoceptor; test: ^3H‐prazosin whole‐cell radioligand binding, CHO‐α1B cells; conditions: CHO‐α1B cells
[14] = molecular target: T1, human α1D‐adrenoceptor (full length); test: Intracellular free calcium mobilization, CHO‐α1D cells; format: cell-based
human α1A‐adrenoceptor [15] = molecular target: T3, human α1A‐adrenoceptor; test: ^3H‐cAMP accumulation in the presence of 10 μM forskolin, CHO‐α1A cells; format: cell-based; conditions: CHO‐α1A cells
human α1A‐adrenoceptor [16] = molecular target: T3, human α1A‐adrenoceptor; test: ERK1/2‐phosphorylation (Surefire Alphascreen), CHO‐α1A cells; format: cell-based
[17] = CHO‐α1D cells, log values given negative
[18] = fold increase of the forskolin response

C[C@H](CCC(=O)O)C[C@H](C)C[C@H](C)C(=O)/C=C(\O)[C@H](C)C[C@H](C)C/C=C/[C@@H](C)[C@@H](O)[C@@H](C)[C@@H](O)C[C@@H]1CC[C@@](C)([C@H]2CC[C@@](C)([C@@H](C)O)O2)O1 [Ionomycin]
Calcium response fold over basal [1]: 27.2 ± 1.2 fold over basal

Brc1c(NC2=NCCN2)ccc2nccnc12 [UK14304]
ERK1/2‐phosphorylation % PDBu [2]: No response | ERK1/2‐phosphorylation Log EC50 [2, 17]: No response | Intracellular calcium release % ionomycin (human α1B‐adrenoceptor [3]): 27.5 ± 1.8% | Log efficacy ratio KD /EC50 (human α1B‐adrenoceptor [3]): 2.26 | EC50 (human α1B‐adrenoceptor [3]; CHO‐α1B cells, given as log EC50 (negative numbers), read-out: Intracellular calcium release Log EC50 (converted)): 70.8 nM | ERK1/2-phosphorylation % PDBu ([4]; maximal response as % of PDBu (10μM) response): No response | ERK1/2-phosphorylation Log EC50 [4]: No response | cAMP accumulation (in presence of forskolin) Log EC50 [5]: No response | Affinity selectivity ratio α1A vs α1B (human α1A‐adrenoceptor [6]): 4.4 fold | Affinity selectivity ratio α1A vs α1D (human α1A‐adrenoceptor [6]): 1.5 fold | Kd (human α1A‐adrenoceptor [6]; Log KD α1A, ^3H‐prazosin whole cell binding, CHO‐α1A cells, given as log KD (negative), mean ± SEM): 2950 nM | cAMP accumulation (in presence of forskolin) Fold increase (human α1B‐adrenoceptor [7]; [18]): 1.50 ± 0.05 fold | EC50 (human α1B‐adrenoceptor [7]; in presence of forskolin, read-out: cAMP accumulation (in presence of forskolin) Log EC50 (converted)): 97.7 nM | ERK1/2‐phosphorylation % PDBu (human α1B‐adrenoceptor [8]): 33.8 ± 5.0% | EC50 (human α1B‐adrenoceptor [8]; CHO‐α1B cells, for bi‐phasic responses the initial stimulatory part, read-out: ERK1/2‐phosphorylation Log EC50 (converted)): 316 nM | Intracellular calcium release % ionomycin (human α1A‐adrenoceptor [9]): 45.6 ± 1.6% | Log efficacy ratio KD /EC50 (human α1A‐adrenoceptor [9]): 1.64 | EC50 (human α1A‐adrenoceptor [9]; CHO‐α1A cells, given as log EC50 (negative), read-out: Intracellular calcium release Log EC50 (converted)): 67.6 nM | cAMP accumulation % forskolin (human α1B‐adrenoceptor [10]; % forskolin maximum response): 2.7 ± 0.1% | EC50 (human α1B‐adrenoceptor [10]; read-out: cAMP accumulation Log EC50 (converted)): 95.5 nM | cAMP accumulation % forskolin at 10 μM (human α1A‐adrenoceptor [11]): 12.0 ± 1.1% | Affinity selectivity ratio α1B vs α1D [12]: 3.0 fold | Kd ([12]; 3H‐prazosin binding Log KD, whole‐cell binding (from Table 1), log values given negative): 4.37 µM | Kd ([12]; Log KD α1D, ^3H‐prazosin whole cell binding, given as log KD (negative), mean ± SEM, 'early plateau' = specific binding not fully inhibited): 4.37 µM | Kd (human α1B‐adrenoceptor [13]; Log KD α1B, ^3H‐prazosin whole cell binding, given as log KD (negative), mean ± SEM): 12.9 µM | Kd (human α1B‐adrenoceptor [13]; Log KD, ^3H‐prazosin binding, whole‐cell binding (from Table 1), given as log KD (negative numbers)): 12.9 µM | Intracellular calcium release % ionomycin [14]: No response | Intracellular calcium release Log EC50 [14, 17]: No response | EC50 (human α1A‐adrenoceptor [15]; 10 μM forskolin, read-out: cAMP accumulation (in presence of forskolin) Log EC50 (converted)): 1380 nM | cAMP accumulation (in presence of forskolin) Fold increase (human α1A‐adrenoceptor [15]; [18]): 1.95 ± 0.09 fold | ERK1/2‐phosphorylation % PDBu (human α1A‐adrenoceptor [16]): 88.7 ± 4.3% | EC50 (human α1A‐adrenoceptor [16]; CHO‐α1A cells, 2–4 min, ^a bi‐phasic: initial stimulatory part, ^b also active in parent CHO cells, read-out: ERK1/2‐phosphorylation Log EC50 (converted)): 186 nM
